Assays:
[1] = test system: Thioglycolate-elicited murine peritoneal macrophages; experiment: Expression of NF-κB target genes in LPS-treated macrophages (northern blot, real-time quantitative PCR); format: cell-based
Method: LPS is an established inducer of the NF-κB signaling pathway in macrophages. Several genes inhibited by LXR ligands in the array studies above are established targets of NF-κB. To further investigate the role of LXRs in NF-κB-dependent gene expression, we analyzed expression of NF-κB target genes in peritoneal macrophages from wild-type mice. […] Expression of NF-κB target genes was determined by northern blot (A) or by real-time quantitative PCR assays (B). 36B4 was used as a control for RNA loading and integrity. […] RNA and protein analysis. Total RNA was extracted using Trizol reagent (Life Technologies, Inc.). Northern blot analysis was carried out as described using radiolabeled cDNA probes (Tontonoz, P. et al. 1998 Cell 93:241-252). Real-time quantitative PCR (TaqMan) analysis was performed using an Applied Biosystems 7700 sequence detector. Two-step real-time PCR was performed as described (Joseph, S. B. et al. 2002 J Biol Chem 277:11019-11025). The primers and probes used are as follows: […]

[2] = test system: Thioglycolate-elicited peritoneal macrophages; experiment: DNA microarray analysis of LPS-activated macrophages; format: cell-based, mice; conditions: 2 μM 18 h, then 100 ng/ml LPS 6 h
Method: DNA microarrays were used to further examine the effect of LXR activation on LPS-induced gene transcription. […] Cells were harvested 6 hours after LPS stimulation and total RNA from these samples was used to probe Affymetrix U74Av2 arrays. The array data were analyzed using GeneSpring software to identify genes regulated by the ligand in the cells. […] Genes involved in inflammation or lipid metabolism were selected based on ligand-dependent changes in expression in the cells. […] DNA microarray analysis. […] Total RNA was reverse transcribed using a T7-(dT)24 primer (Genset Corp.). Biotin-labeled cRNA was generated using the Bioarray High Yield Transcript Labeling Kit (ENZO). Samples were hybridized to single Affymetrix Murine U74Av2 microarrays and visualized by the PAN Facility at Stanford University. Data was analyzed using GeneSpring and GeneChip Analysis Suite software (Affymetrix). Only those results determined by the software to represent significant expression differences in the presence or absence of ligand are presented. Positive results were defined as ligand-dependent changes in expression in wild-type cells.

[3] = pretreated 18 h, 100 ng/ml LPS 3 h and 6 h, northern blot
[4] = pretreated 18 h, 100 ng/ml LPS 6 h, real-time quantitative PCR

## O=C(O)Cc1cccc(OCCCN(Cc2cccc(C(F)(F)F)c2Cl)CC(c2ccccc2)c2ccccc2)c1 [GW3965]
[1]
  receptor-independent induction of IL-6: modest receptor-independent induction
  receptor-independent induction of MCP-1: modest receptor-independent induction
[1]; LPS, FIG. 3a, receptor-dependent
  iNOS mRNA expression: inhibition
[1]; [3]
  COX-2 expression: effective inhibitors
  lκBα expression: effective inhibitors
[1]; [4]
  IL1-receptor antagonist (IL-1RN) expression: effective inhibitors
  IL-1β expression: effective inhibitors
  IL-6 expression: effective inhibitors
  MCP-1 expression: effective inhibitors
[2]
  expression of cluster of genes of macrophage innate immune response (iNOS, COX-2, IL-6, IL-1β, G-CSF, MCP-1, MCP-3, MIP-1β, IP-10, MMP-9): inhibited
  expression of genes involved in lipid metabolism (incl. Abca1): most highly induced
  expression of genes involved in other cellular processes: not significantly altered
[2]; apoptosis gene
  Change: Apoptosis inhibitor 2: 1.10
  Change: Apoptosis inhibitor 3: 0.83
  Change: Apoptosis signal-regulating kinase 1: 0.99
  Change: Apoptosis-inducing factor AIF (Aif): 0.83
  Change: Bc1-10 protein: 1.13
  Change: Bc12-associated X protein: 1.15
  Change: Bc12-like: 0.80
  Change: Bc12 homologous antagonist/killer: 0.94
  Change: Caspase 2: 1.10
  Change: Caspase 3, apoptosis related cysteine protease: 1.40
  Change: Caspase 7: 0.94
  Change: Caspase 9: 0.79
  Change: Caspase 11: 0.92
  Change: E1B 19 K/Bc1-2-binding protein homolog (Nip3): 1.14
[2]; cell-cycle gene
  Change: Avian reticuloendotheliosis viral (v-rel) oncogene related B: 1.21
  Change: Cell division cycle 42: 1.06
  Change: Cyclin 1: 1.05
  Change: Cyclin B2: 0.68
  Change: Cyclin F: 0.72
  Change: Cyclin G2: 0.83
  Change: Cyclin dependent kinase inhibitor 2B (Cdkn2b): 1.15
  Change: Cyclin-dependent kinase 5: 1.00
  Change: Cyclin-dependent kinase inhibitor 1A (P21): 0.85
  Change: Cyclin-dependent kinase inhibitor 1C (P57): 1.28
  Change: Early growth response 2: 0.96
  Change: Growth arrest specific 1: 0.91
  Change: Growth arrest specific 2: 0.92
  Change: Growth arrest specific 7: 1.22
  Change: Guanine Nucleotide Regulatory Protein: 1.12
  Change: Met proto-oncogene: 1.12
  Change: Proliferating cell nuclear antigen: 1.13

— patent US20040259948A1, “Reciprocal regulation of inflammation and lipid metabolism by liver X receptors” (priority 2003, published 2004)
